The text below walks through data of PubChem BioAssay (NCI).

What all share (assay): NCI-60 cell line screen, 48 h
Test [1] deals with A549 NSCLC.
Test [2] deals with BT-549 breast.
Test [3] has as its system HOP-62 NSCLC.
In test [4] the test system is HOP-92 NSCLC.
The test system of test [5] is HS 578T breast.
In test [6] the test system is LOX IMVI melanoma.
For test [7], the system named is MDA-MB-435.
The test system of test [8] is NCI-H522 lung.
In test [9] the test system is SK-MEL-5 melanoma.
In test [10] the test system is SW-620 colon.

Molecules are shown by their SMILES. Several values for one entry are separate records, joined by “and”; a condition that tells them apart may be missing. Equal values may be shown once.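 Five compound concentrations were applied to cells in 96-well plates for 48 hours; endpoints were derived by simple linear interpolation of the resulting dose-response curve. GI50 is the concentration that inhibits growth by half. TGI: total growth inhibition.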

With `CC[C@@H](C(=O)[C@H](C)[C@H](O)[C@@H](C)[C@H]1O[C@H]([C@@H](CC)C(=O)N(CC)CC)CC[C@H]1C)C1O[C@]2(C=C[C@@H](O)[C@]3(CC[C@@](C)([C@H]4CC[C@](O)(CC)[C@H](C)O4)O3)O2)[C@H](C)C[C@@H]1C` (stereo partly drawn), the GI50 in test [1] was 2.95 µM; in [2], 3.33 µM; in test [3], 4.33 µM; in test [4], 1.45 µM; in test [5], 2.9 µM; in test [6] it was 1.83 µM. For the same compound, the GI50 in test [7] is 2.81 µM; in test [8] it was 2.34 µM; in test [9], 1.76 µM; in [10], 3.22 µM. The TGI in [1] was found to be 17.6 µM; in test [2], 14.8 µM; in test [3] it was 19.5 µM; in test [4], 5.43 µM; in test [5] it was 13.8 µM; in [6], 4.29 µM. Further, the TGI in test [7] came to 9.8 µM; in [8], 7.74 µM; in test [9] it was 3.24 µM; in [10], 13.3 µM.

For `CC1(C)CC[C@]2(C(=O)O)CC[C@]3(C)C(=CC[C@@H]4[C@@]5(C)C[C@H](O)[C@H](O)[C@@](C)(C(=O)O)[C@@H]5CC[C@]43C)[C@@H]2C1`, the TGI in [1], in test [2], in test [3], in test [4], in test [5] and in test [6] was over 100 µM each time. Moreover, the TGI in [7], in test [8], in [9] and in test [10] was over 100 µM throughout.

Take `CCc1nc(N)nc(N)c1-c1ccc2nnn(O)c2c1`: the TGI in test [1], in [2], in test [3], in test [4], in [5] and in test [6] was over 100 µM in each case. Further, the TGI in test [7], in test [8], in [9] and in test [10] was over 100 µM in each case.

As to `O=C(O)C(C(=O)O)P(=S)(S)c1ccccc1` (stereo not drawn), the TGI in test [1], in test [2], in test [3], in [4], in [5] and in test [6] was over 100 µM throughout. In addition, the TGI is over 100 µM in test [7], over 100 µM in test [8], over 31.6 µM in test [9] and over 100 µM in test [10].

With `Cc1ccc2c(c1)c(Sc1ccc(C(=O)NO)cc1)c1n2CN(C)CC1`, the GI50 in [1] is 2.27 µM; in [2], 1.8 µM; in test [3], 1.61 µM; in test [4] it was 2.1 µM; in test [5] it was 2.25 µM; in test [6], 1.59 µM. Further, the GI50 in [7] was 1.58 µM; in [8] it was 1.16 µM; in test [9] it was 2.23 µM; in [10] it was 1.77 µM. The TGI in test [1] stood at 5.81 µM; in [2] it was 4.57 µM; in test [3], 3.83 µM; in test [4], 6.37 µM; in [5] it was 13 µM; in test [6], 3.36 µM. Besides, the TGI stood at 3.37 µM in test [7], 2.61 µM in test [8], 6.27 µM in test [9] and 4.45 µM in test [10].

Turning to `N=C(N)SCc1c2ccccc2c(CSC(=N)N)c2ccccc12`, the GI50 in test [1] is 3.61 µM; in test [2], 16.9 µM; in test [3] it was 10.5 µM; in test [4], 2.8 µM; in [5] it was 5.75 µM; in test [6], 1.4 µM. For the same compound, the GI50 in test [7] is 12.1 µM; in [8], 3.23 µM; in test [9], 6.03 µM; in test [10], 3.75 µM. The TGI amounted to 30.9 µM in test [1]; 58.3 µM in [2]; 26.5 µM in test [3]; 19.9 µM in test [4]; 34.3 µM in [5]; 21.9 µM in test [6]. Besides, the TGI was 32.6 µM in test [7], 30.7 µM in test [8], 20.2 µM in test [9] and 19.7 µM in test [10].

Take `O=C(/C(=C/c1ccc([N+](=O)[O-])cc1)SCc1ccc(Cl)cc1)c1ccc(F)cc1`: the GI50 was 49.5 µM in [1]; 2.06 µM in [2]; 13.1 µM in test [3]; 10.2 µM in test [4]; 2.42 µM in test [5]; 1.63 µM in [6]. Moreover, the GI50 in test [7] is 2.23 µM; in test [8], 1.84 µM; in test [9], 2.85 µM; in test [10], 1.71 µM. Also, the TGI in test [1] was over 100 µM; in test [2], 4.56 µM; in test [3] it was 35.4 µM; in [4], 34 µM; in test [5] it was 7.68 µM; in test [6], 3.1 µM. In addition, the TGI in test [7] was 5.87 µM; in test [8], 3.76 µM; in [9], 8.87 µM; in test [10], 4.91 µM.

For the compound `C[C@@H](NC(=O)/C(C#N)=C/c1ccc([N+](=O)[O-])cc1)c1ccccc1`, the GI50 was 2.94 µM in [1]; 1.75 µM in [2]; 2.88 µM in test [3]; 1.89 µM in test [4]; 5.92 µM in [5]; 1.94 µM in [6]. For the same compound, the GI50 in test [7] was 2.7 µM; in test [8] it was 1.71 µM; in test [9], 1.94 µM; in test [10], 1.83 µM. The TGI was 8.37 µM in test [1]; 3.55 µM in [2]; 8.91 µM in test [3]; 5.96 µM in [4]; over 32.9 µM in test [5]; 4.64 µM in test [6]. Further, the TGI in test [7] was 7.63 µM; in test [8], 3.47 µM; in test [9] it was 3.95 µM; in test [10], 3.81 µM.

For the compound `COC(=O)C1=COC(C)C2CN3CCc4c([nH]c5cc(OC)c(OC)cc45)C3CC12` (stereo not drawn), the TGI in test [1] is over 100 µM; in [2], > 100 µM and 61.6 µM; in test [3], over 100 µM; in [4], over 100 µM; in test [5], over 100 µM; in test [6], over 100 µM. In addition, the TGI was over 100 µM in test [7]; > 100 µM and 57.2 µM in test [8]; over 100 µM in test [9]; over 100 µM in test [10]. Further, the GI50 was > 100 µM and 18.5 µM in test [2]; > 100 µM and 22 µM in test [8]; > 100 µM and 39.1 µM in [10].
